Patent publication US8168651B2, “Protein kinase modulators” (Cylene Pharmaceuticals, Inc., priority 2008, dated 2012)
Like-named read-outs stand apart in the source and are kept apart here.

Key:
recombinant human PIM1 = recombinant human PIM1 (Homo sapiens (Human), UniProt P11309); test: PIM-1 kinase activity in cell-free in vitro assay; type: biochemical; conditions: cell-free assay; for inhibition at 0.5 µM: 500 nM compound, read-out: PIM-1: % inh 500 nM
[1] = tested on: HCT-116 human colorectal carcinoma cells; test: Cell-proliferation assay using Alamar Blue dye; type: cell-based; conditions: Homo sapiens;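 note: cells exposed to compound for about 4 days, then Alamar Blue added and dye fluorescence read after about 4 h, compared with medium-only control wells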
recombinant human CK2 = recombinant human CK2 (Homo sapiens (Human), UniProt P68400); test: CK2 assay (cell-free, 33P-ATP filter plate); type: biochemical; conditions: 15 um ATP, cell-free assay; read-out: CK2 (15 um ATP) IC50
Jurkat = test: Cell proliferation modulatory activity, Jurkat; type: cell-based; conditions: Homo sapiens
[2] = HCT-116, HCT-116, second HCT-116 column (c8), read-out: HCT-116 (uM), cell proliferation modulatory activity
[3] = HCT-116, read-out: HCT-116 (uM), cell proliferation modulatory activity, HCT-116, second HCT-116 column (c8)

Sequence of recombinant human PIM1 (P11309 whole entry): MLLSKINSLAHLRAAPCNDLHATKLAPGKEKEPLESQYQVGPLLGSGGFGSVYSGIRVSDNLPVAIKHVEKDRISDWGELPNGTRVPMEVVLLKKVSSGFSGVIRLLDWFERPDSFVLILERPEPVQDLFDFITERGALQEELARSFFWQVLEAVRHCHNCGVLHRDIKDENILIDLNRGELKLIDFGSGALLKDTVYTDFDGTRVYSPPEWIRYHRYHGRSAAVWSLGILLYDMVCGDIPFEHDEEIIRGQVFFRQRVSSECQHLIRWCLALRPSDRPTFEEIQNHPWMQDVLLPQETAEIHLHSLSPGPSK
Sequence of recombinant human CK2 (P68400 whole entry): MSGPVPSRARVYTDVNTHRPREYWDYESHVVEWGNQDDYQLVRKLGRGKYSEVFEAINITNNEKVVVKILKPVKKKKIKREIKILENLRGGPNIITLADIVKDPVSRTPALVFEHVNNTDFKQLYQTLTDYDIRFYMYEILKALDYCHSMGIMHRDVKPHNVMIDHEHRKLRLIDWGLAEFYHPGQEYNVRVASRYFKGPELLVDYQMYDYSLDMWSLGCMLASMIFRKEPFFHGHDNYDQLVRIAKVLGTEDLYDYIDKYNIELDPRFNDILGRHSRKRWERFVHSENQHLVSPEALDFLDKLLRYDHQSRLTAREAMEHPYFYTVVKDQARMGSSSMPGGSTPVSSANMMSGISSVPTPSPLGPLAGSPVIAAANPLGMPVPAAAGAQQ
Sequence of recombinant human CK2 (P67870 whole entry partner): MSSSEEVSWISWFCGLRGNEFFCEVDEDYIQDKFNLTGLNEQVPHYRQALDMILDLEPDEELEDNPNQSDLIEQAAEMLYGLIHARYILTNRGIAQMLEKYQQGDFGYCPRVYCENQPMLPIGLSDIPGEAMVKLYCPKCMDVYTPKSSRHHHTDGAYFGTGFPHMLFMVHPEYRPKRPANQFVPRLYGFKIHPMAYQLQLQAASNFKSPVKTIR

Row | SMILES | inhibition at 0.5 µM (recombinant human PIM1) [%] | IC50 [1, 2] [µM] | IC50 (recombinant human CK2) [µM] | IC50 (Jurkat) [µM] | IC50 (recombinant human PIM1) [µM] | IC50 [1, 3] [µM]
1 | CC(C)Nc1ncc2c(n1)c(NC1CC1)nc1cc(C(=O)O)ccc12 | 73.3 | – | – | 2.14 | > 1.1 | > 10
2 | O=C(O)c1ccc2c(c1)nc(NC1CC1)c1nc(Nc3cccc(C(F)(F)F)c3)ncc12 | 44.2 | – | – | 2.39 | – | > 10
3 | O=C(O)c1ccc2c(c1)nc(NC1CC1)c1nc(NCc3cccnc3)ncc12 | – | > 10 | 0.023 | > 50 | – | –
4 | O=C(O)c1ccc2c(c1)nc(NC1CC1)c1nc(Nc3cccc(Cl)c3)ncc12 | 23.2 | > 10 | 0.095 | 2.17 | – | –
5 | O=C(O)c1ccc2c(c1)nc(NC1CC1)c1nc(Nc3cccc(F)c3F)ncc12 | 71.7 | > 10 | 0.017 | 2.38 | – | –
6 | CC(Nc1ncc2c(n1)c(NC1CC1)nc1cc(C(=O)O)ccc12)c1ccccc1 (stereo not shown) | -32.7 | > 10 | 0.228 | 28.7 | – | –
7 | O=C(O)c1ccc2c(c1)nc(NC1CC1)c1nc(NCC3CCCO3)ncc12 (stereo not shown) | 10.5 | > 10 | 0.042 | 21.5 | – | –
8 | COC(=O)c1ccc2c(c1)nc(NC1CC1)c1nc(SCc3ccccc3Cl)ncc12 [drawing 1611] | -0.924 | > 10 | – | 4.67 | – | –
9 | O=C(O)c1ccc2c(c1)nc(NC1CC1)c1nc(SCc3ccccc3Cl)ncc12 [drawing 1614] | 7.49 | > 10 | – | 29.3 | – | –
10 | O=C(O)c1ccc2c(c1)nc(NC1CC1)c1nc(NC3CC3)ncc12 [drawing 1616] | 27.1 | – | – | 3.45 | – | > 10
11 | O=C(O)c1ccc2c(c1)nc(NC1CC1)c1nc(NCc3ccccc3)ncc12 [drawing 1617] | 34.5 | – | – | 8.82 | – | > 10
12 | O=C(O)c1ccc2c(c1)nc(NC1CC1)c1nc(Nc3ccccc3)ncc12 [drawing 1618] | 46 | – | – | 4.6 | – | > 10
13 | O=C(O)c1ccc2c(c1)nc(N1CCOCC1)c1nc(NC3CC3)ncc12 [drawing 1627] | 26 | > 10 | – | 3.67 | – | –
14 | COC(=O)c1ccc2c(c1)nc(NC1CC1)c1nc(SC)ncc12 [drawing 1641] | 17.1 | > 10 | – | > 50 | – | –
15 | CN(C)CCNc1nc2cc(C(=O)O)ccc2c2cnc(NC3CC3)nc12 [drawing 1642] | -37.5 | > 10 | – | 34 | – | –

The next lines start with the values.

Row | inhibition at 0.5 µM (recombinant human PIM1) [%] | IC50 [1, 2] [µM] | IC50 (recombinant human CK2) [µM] | IC50 (Jurkat) [µM] | IC50 (recombinant human PIM1) [µM] | IC50 [1, 3] [µM] | SMILES
16 | 17.2 | > 10 | 0.013 | 13.7 | – | – | COCCNc1ncc2c(n1)c(NC1CC1)nc1cc(C(=O)O)ccc12
17 | -15.9 | > 10 | 0.164 | > 50 | – | – | O=C(O)c1ccc2c(c1)nc(NC1CC1)c1nc(NCCCO)ncc12
18 | -8.19 | > 10 | 0.058 | 18.1 | – | – | CCOCCNc1ncc2c(n1)c(NC1CC1)nc1cc(C(=O)O)ccc12
19 | -40.2 | > 10 | 0.074 | 16.6 | – | – | CC(C)OCCCNc1ncc2c(n1)c(NC1CC1)nc1cc(C(=O)O)ccc12
20 | 9.55 | 3.64 | 0.045 | 2.02 | – | – | CCOCCCNc1ncc2c(n1)c(NC1CC1)nc1cc(C(=O)O)ccc12
21 | -2.46 | > 10 | 0.064 | 7.37 | > 1.1 | – | CC(C)OCCNc1ncc2c(n1)c(NC1CC1)nc1cc(C(=O)O)ccc12
22 | 15.7 | > 10 | 0.008 | 4.41 | – | – | O=C(O)c1ccc2c(c1)nc(NC1CC1)c1nc(NCC3CC3)ncc12
23 | 13.2 | – | – | 9.37 | – | > 10 | CCCNc1ncc2c(n1)c(NC1CC1)nc1cc(C(=O)O)ccc12 [drawing 1645]
